Our source for the Ki values is patent publication US8815882B2, “Pyrazole aminopyrimidine derivatives as LRRK2 modulators” (Genentech, Inc., priority 2010, dated 2014).

SMILES strings stand for the structures.

In the first assay the target is T1, LRRK2 (Homo sapiens, UniProt Q5S007, G2019S).
T1 construct: purchased Invitrogen PV4882 (lot 567054A)
T1 sequence (Q5S007 whole entry G2019S): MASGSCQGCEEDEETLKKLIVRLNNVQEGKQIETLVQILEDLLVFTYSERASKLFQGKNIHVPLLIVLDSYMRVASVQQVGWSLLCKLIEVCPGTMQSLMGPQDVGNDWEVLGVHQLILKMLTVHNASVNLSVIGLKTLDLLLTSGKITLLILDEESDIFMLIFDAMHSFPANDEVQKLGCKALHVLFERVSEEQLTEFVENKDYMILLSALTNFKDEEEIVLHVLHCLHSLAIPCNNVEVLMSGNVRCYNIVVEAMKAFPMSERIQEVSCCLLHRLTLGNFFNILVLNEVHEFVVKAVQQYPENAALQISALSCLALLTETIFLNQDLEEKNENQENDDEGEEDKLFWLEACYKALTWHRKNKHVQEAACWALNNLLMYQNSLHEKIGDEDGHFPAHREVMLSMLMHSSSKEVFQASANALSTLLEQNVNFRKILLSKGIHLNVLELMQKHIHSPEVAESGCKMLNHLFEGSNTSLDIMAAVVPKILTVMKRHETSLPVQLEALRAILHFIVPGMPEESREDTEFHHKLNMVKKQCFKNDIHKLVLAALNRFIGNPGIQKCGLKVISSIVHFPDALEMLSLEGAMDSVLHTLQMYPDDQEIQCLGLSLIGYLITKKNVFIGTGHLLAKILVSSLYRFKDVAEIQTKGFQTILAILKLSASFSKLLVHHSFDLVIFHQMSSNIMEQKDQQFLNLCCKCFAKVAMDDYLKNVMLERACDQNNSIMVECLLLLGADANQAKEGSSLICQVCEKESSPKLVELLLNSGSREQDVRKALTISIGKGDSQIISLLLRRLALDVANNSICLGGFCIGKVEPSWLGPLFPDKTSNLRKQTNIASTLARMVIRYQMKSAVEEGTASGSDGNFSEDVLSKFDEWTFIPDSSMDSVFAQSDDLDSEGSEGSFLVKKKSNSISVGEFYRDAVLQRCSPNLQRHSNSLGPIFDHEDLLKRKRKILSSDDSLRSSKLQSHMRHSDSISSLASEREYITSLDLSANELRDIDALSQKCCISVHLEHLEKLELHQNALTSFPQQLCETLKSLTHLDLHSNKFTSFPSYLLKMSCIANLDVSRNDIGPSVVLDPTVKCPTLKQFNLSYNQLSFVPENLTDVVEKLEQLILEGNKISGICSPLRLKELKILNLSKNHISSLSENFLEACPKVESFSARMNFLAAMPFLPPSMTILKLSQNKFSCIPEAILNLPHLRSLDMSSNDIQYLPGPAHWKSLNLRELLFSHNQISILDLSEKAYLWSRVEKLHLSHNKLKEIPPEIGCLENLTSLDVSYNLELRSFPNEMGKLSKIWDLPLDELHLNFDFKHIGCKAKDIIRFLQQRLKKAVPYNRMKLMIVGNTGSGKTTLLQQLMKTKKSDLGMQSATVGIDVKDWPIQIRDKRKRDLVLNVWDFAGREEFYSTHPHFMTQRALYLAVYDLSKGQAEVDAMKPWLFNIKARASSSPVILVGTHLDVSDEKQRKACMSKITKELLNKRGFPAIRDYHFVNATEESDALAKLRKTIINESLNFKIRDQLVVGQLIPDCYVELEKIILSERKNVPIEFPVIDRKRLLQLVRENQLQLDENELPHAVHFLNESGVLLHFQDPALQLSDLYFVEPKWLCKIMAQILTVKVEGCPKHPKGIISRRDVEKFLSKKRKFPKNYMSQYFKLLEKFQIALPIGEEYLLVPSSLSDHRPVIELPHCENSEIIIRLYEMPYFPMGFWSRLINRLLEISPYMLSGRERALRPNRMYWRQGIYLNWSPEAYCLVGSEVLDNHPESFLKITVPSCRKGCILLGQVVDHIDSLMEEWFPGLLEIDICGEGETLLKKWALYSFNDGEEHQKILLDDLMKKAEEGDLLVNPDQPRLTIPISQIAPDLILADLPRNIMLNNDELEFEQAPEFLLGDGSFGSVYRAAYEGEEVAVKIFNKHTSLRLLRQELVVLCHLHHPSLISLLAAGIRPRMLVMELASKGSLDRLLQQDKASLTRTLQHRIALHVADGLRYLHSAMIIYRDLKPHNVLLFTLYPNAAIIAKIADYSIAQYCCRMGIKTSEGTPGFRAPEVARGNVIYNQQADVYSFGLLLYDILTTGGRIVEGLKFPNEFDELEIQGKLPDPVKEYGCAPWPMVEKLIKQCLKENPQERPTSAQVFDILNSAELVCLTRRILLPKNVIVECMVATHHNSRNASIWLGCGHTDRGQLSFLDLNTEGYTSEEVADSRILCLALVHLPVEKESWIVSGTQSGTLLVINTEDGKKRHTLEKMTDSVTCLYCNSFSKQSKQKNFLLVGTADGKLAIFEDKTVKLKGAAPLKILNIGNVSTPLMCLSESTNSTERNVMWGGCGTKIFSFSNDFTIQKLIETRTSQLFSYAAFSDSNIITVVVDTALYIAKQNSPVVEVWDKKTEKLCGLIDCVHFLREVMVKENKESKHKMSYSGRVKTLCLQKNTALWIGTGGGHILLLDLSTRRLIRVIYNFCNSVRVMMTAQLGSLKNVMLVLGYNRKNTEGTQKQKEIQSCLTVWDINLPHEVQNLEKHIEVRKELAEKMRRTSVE
The experiment in a line: In Vitro LRRK2 Assay (LabChip 3000, fluorescently-labeled peptide substrate, ATP). The settings on record: Table 9; LRRK2 Ki (micromolar); read-out: LRRK2 Ki (KI). Format: biochemical. On the procedure: This assay was used to determine a compound's potency in inhibiting activity of LRRK2 by determining, Kiapp, IC50, or percent inhibition values. In a polypropylene plate, LRRK2, fluorescently-labeled peptide substrate, ATP and test compound were incubated together. Using a LabChip 3000 (Caliper Life Sciences), after the reaction the substrate was separated by capillary electrophoresis into two populations: phosphorylated and unphosphorylated. The relative amounts of each were quantitated by fluorescence intensity. LRRK2 Ki was determined according to the equation: Y=V0*(1−(x+Ki*(1+S/Km)+Et)/(2*Et)−(((x+Ki*(1+S/Km)+Et)^2−(4*Et*x))^0.5)/(2*Et))). Ki values in Table 4 and elsewhere herein are shown in μM.
Assay conditions and materials used were as follows:
Compound Plate Preparation:
For serial dilutions, 34.6 μl DMSO was added to columns 3-24.
Total and Blank Preparation:
In Complete Reaction Buffer, substrate was diluted to 4 μM. Equal volumes of Complete Reaction Buffer and 4 μM substrate were combined to obtain the blank. Equal volumes of Complete Reaction Buffer and 4 μM substrate were combined and to the combined solution was added 2× final LRRK2 concentration.
To a 50 μl polypropylene plate, 5 μl/well buffer/substrate was added by hand to Blank wells. A Biomek FX was used to start the kinase reaction (“PLK SAR 23 ATP”). The following were added to the appropriate wells:
5 μl/well compound/ATP in Assay Plate;
5 μl/well kinase/substrate in Assay Plate;
The plate was incubated for 2 hours in the dark. Biomek FX was used to stop the kinase reaction (“PLK Stop”), and 10 μl/well Stop solution was added to the Assay Plate. Results were read on the LabChip 3000.
The LabChip 3000 was run using the job “LRRK2 IC50” with the following job settings: […]
As for `CCNc1nc(Nc2cnn(C)c2C)ncc1C#N` [Example 385, 2-(1,5-Dimethyl-1H-pyrazol-4-ylamino)-4-ethylamino-pyrimidine-5-carbonitrile], the Ki (in general, the equilibrium dissociation constant of an inhibitor or competing ligand from its target) is 12.7 nM.

Still in this assay, the particulars now being: Table 10; LRRK2 Ki (micromolar); read-out: LRRK2 Ki (KI).
For `COC(=O)C(C)(C)n1cc(Nc2ncc(Cl)c(OC)n2)c(C)n1` [Example 435, 2-[4-(5-Chloro-4-methoxy-pyrimidin-2-ylamino)-3-methyl-pyrazol-1-yl]-2-methyl-propionic acid methyl ester], the Ki came to 35.5 nM.

In the case of `CNc1nc(Nc2cn([C@H](C)C#N)nc2C)ncc1C(F)(F)F` [Example 437], the Ki came to 6.5 nM.

The same assay, now with this note: read-out: LRRK2 Ki (KI), Table 7.
Regarding `CCNc1nc(Nc2cn(C3CCN(CC4OCCO4)CC3)nc2C)ncc1C(F)(F)F` [Example 88, N^2-[1-(1-[1,3]Dioxolan-2-ylmethyl-piperidin-4-yl)-3-methyl-1H-pyrazol-4-yl]-N^4-ethyl-5-trifluoromethyl-pyrimidine-2,4-diamine], the Ki is 9.4 nM.

For the compound `COc1nc(Nc2cnn(-c3ccc(C#N)cc3)c2C)ncc1Cl` [Example 83, 4-[4-(5-Chloro-4-methoxy-pyrimidin-2-ylamino)-5-methyl-pyrazol-1-yl]-benzonitrile], the Ki came to 9 nM.

Take `Cc1c(Nc2ncc(Cl)c(OC3COC3)n2)cnn1C` [Example 62, 5-chloro-N-(1,5-dimethyl-1H-pyrazol-4-yl)-4-(oxetan-3-yloxy)pyrimidin-2-amine]: the Ki was 39 nM.

On to `COc1nc(Nc2cn(-c3ccc(C(=O)N(C)C)cc3)nc2C)ncc1Cl` [Example 81, 4-[4-(5-Chloro-4-methoxy-pyrimidin-2-ylamino)-3-methyl-pyrazol-1-yl]-N,N-dimethyl-benzamide], for which the Ki came out at 2.2 nM.

Regarding `COc1nc(Nc2cn(C)nc2C)ncc1Cl` [Example 15, 5-Chloro-N-(1,3-dimethyl-1H-pyrazol-4-yl)-4-methoxy-pyrimidin-2-amine], the Ki was found to be 14.4 nM.

Staying with this assay, now noted: read-out: LRRK2 Ki (KI), Table 8.
For the compound `CNc1nc(Nc2cnn(CC(C)(C)N3CCOCC3)c2C)ncc1C(F)(F)F` [Example 288, N4-Methyl-N2-[5-methyl-1-(2-methyl-2-morpholin-4-yl-propyl)-1H-pyrazol-4-yl]-5-trifluoromethyl-pyrimidine-2,4-diamine], the Ki came out at 7.7 nM.

On to `CNc1nc(Nc2cn(C3CCS(=O)(=O)CC3)nc2C)ncc1C(F)(F)F` [Example 273, N2-[1-(1,1-Dioxo-hexahydro-1$1%6&- thiopyran-4-yl)-3-methyl-1H-pyrazol-4-yl]-N4-mcthyl-5-trifluoromethyl-pyrimidine-2,4-diamine], for which the Ki was found to be 37 nM.

For `CCCn1cc(Nc2ncc(Br)c(NC)n2)c(C)n1` [Example 113, 5-bromo-N4-methyl-N2-(3-methyl-1-propyl-1H-pyrazol-4-yl)pyrimidine-2,4-diamine], the Ki was 12 nM.

For `CNc1nc(Nc2cn(-c3ccc(S(C)(=O)=O)cc3)nc2C)ncc1C(F)(F)F` [Example 124, N4-methyl-N2-(3-methyl-1-(4-(methylsulfonyl)phenyl)-1H-pyrazol-4-yl)-5-(trifluoromethyl) pyrimidine-2,4-diamine], the Ki was found to be 0.3 nM.

In the case of `CCNc1nc(Nc2ccn(CC)n2)ncc1C(F)(F)F` [Example 186, N4-ethyl-N2-(1-ethyl-1H-pyrazol-3-yl)-5-(trifluoromethyl) pyrimidine-2,4-diamine], the Ki amounted to 1.9 nM.

In the case of `CNc1nc(Nc2cn(C3CCN(CC(F)(F)F)CC3)nc2C)ncc1C(F)(F)F` [Example 92, N4-methyl-N2-(3-methyl-1-(1-(2,2,2-trifluoroethyl)piperidin-4-yl)-1H-pyrazol-4-yl)-5-(trifluoromethyl) pyrimidine-2,4-diamine], the Ki amounted to 46 nM.

For `CNc1nc(Nc2cn(S(=O)(=O)C(C)C)nc2C)ncc1C(F)(F)F` [Example 217, N2-(1-(isopropylsulfonyl)-3-methyl-1H-pyrazol-4-yl)-N4-methyl-5-(trifluoromethyl) pyrimidine-2,4-diamine], the Ki is 9.9 nM.

As to `CCNc1nc(Nc2cnn(C)c2C2CCC2)ncc1C(F)(F)F` [Example 280, N2-(5-Cyclobutyl-1-methyl-1H-pyrazol-4-yl)-N4-ethyl-5-trifluoromethyl-pyrimidine-2,4-diamine], the Ki came to 3.6 nM.

With `CCNc1nc(Nc2cn(-c3ccc(C#N)cc3)nc2C)ncc1C(F)(F)F` [Example 265, 4-[4-(4-Ethylamino-5-trifluoromethyl-pyrimidin-2-ylamino)-3-methyl-pyrazol-1-yl]-benzonitrile], the Ki amounted to 4.8 nM.

`CCNc1nc(Nc2cnn(C3CCN(C(C)=O)CC3)c2C)ncc1C(F)(F)F` [Example 137, 1-(4-(4-(4-(ethylamino)-5-(trifluoromethyl)pyrimidin-2-ylamino)-5-methyl-1H-pyrazol-1-yl)piperidin-1-yl)ethanone]: the Ki is 0.4 nM.

As for `CNc1nc(Nc2cnn(C3CC3)c2Cl)ncc1C(F)(F)F` [Example 145, N2-(5-chloro-1-cyclopropyl-1H-pyrazol-4-yl)-N4-methyl-5-(trifluoromethyl) pyrimidine-2,4-diamine], the Ki was found to be 1.7 nM.

Turning to `CNc1nc(Nc2cnn(C)c2N(C)C)ncc1C(F)(F)F` [Example 247, N2-(5-(dimethylamino)-1-methyl-1H-pyrazol-4-yl)-N4-methyl-5-(trifluoromethyl) pyrimidine-2,4-diamine], the Ki amounted to 77.9 nM.

On to `CNc1nc(Nc2cn(C)nc2C(C)C)ncc1C(F)(F)F` [Example 227, N2-(3-isopropyl-1-methyl-1H-pyrazol-4-yl)-N4-methyl-5-(trifluoromethyl) pyrimidine-2,4-diamine], for which the Ki stood at 69 nM.

Turning to `CCNc1nc(Nc2cnn(C)c2C)ncc1Br` [Example 257, 5-Bromo-N2-(1,5-dimethyl-1H-pyrazol-4-yl)-N4-ethyl-pyrimidine-2,4-diamine], the Ki stood at 1.5 nM.

On to `CNc1nc(Nc2cnn(C(C)(C)c3cnn(C)c3)c2C)ncc1C(F)(F)F` [Example 341, N4-methyl-N2-(5-methyl-1-(2-(1-methyl-1H-pyrazol-4-yl)propan-2-yl)-1H-pyrazol-4-yl)-5-(trifluoromethyl) pyrimidine-2,4-diamine], for which the Ki amounted to 6.1 nM.

Turning to `CNc1nc(Nc2cnn(C3CCN(C(=O)C(C)C)CC3)c2C)ncc1C(F)(F)F` [Example 175, 2-methyl-1-(4-(5-methyl-4-(4-(methylamino)-5-(trifluoromethyl)pyrimidin-2-ylamino)-1H-pyrazol-1-yl)piperidin-1-yl)propan-1-one], the Ki stood at 6.8 nM.

As to `CNc1nc(Nc2cn(C(C)(C)c3cnn(C)c3)nc2C)ncc1C(F)(F)F` [Example 340, N4-methyl-N2-(3-methyl-1-(2-(1-methyl-1H-pyrazol-4-yl)propan-2-yl)-1H-pyrazol-4-yl)-5-(trifluoromethyl) pyrimidine-2,4-diamine], the Ki was determined as 0.3 nM.

On to `CNc1nc(Nc2cn(C(C)C)nc2C)ncc1Br` [Example 121, 5-bromo-N2-(1-isopropyl-3-methyl-1H-pyrazol-4-yl)-N4-methylpyrimidine-2,4-diamine], for which the Ki amounted to 3.1 nM.

The same assay, now with this note: read-out: LRRK2 Ki given in the example.
For the compound `CNc1nc(Nc2cn(C(C)(C)C#N)nc2C)ncc1C(F)(F)F` [Example 394, 2-methyl-2-(3-methyl-4-(4-(methylamino)-5-(trifluoromethyl)pyrimidin-2-ylamino)-1H-pyrazol-1-yl)propanenitrile], the Ki turned out to be 0.5 nM.
